Assay results as given in patent US11331289B2, “Antimicrobial composition” (priority 2017, dated 2022).
In brackets after ≈: the same amount, converted by molar mass.

Tested on: Malassezia pachydermatis
Experiment: MIC, microdilution broth method
Type: cell-based
Description: Six clinical isolates from dog skin (n=5) and cats (n=1) which had been sent to EnvA (mycology laboratory of BioPôle Alfort) for mycological culture. The isolates, collected in March 2016, were identified as belonging to the species Malassezia pachydermatis. They were maintained by regular transplanting on medium of Sabouraud. Isolates are subcultured 2 to 3 days prior to testing sensitivity.
A stock solution of Oxyclozanide at 1600 μg/mL is prepared in DMSO. The stock solution is then diluted in DMSO to obtain a concentration range of 3.125 μg/ml to 800 μg/ml. A 1/50 dilution of this range and of the stock solution is then carried out in ultrapure water so as to obtain a concentration range of 0.0625 μg/ml to 32 μg/ml and containing 2% of DMSO. 50 μl of these solutions are deposited in wells of a microplate and then 50 μl of inoculum calibrated at 10^6 CFU/ml in Sabouraud/Tween 40 (2%) are added. A range of tested concentrations ranges from 0.0312 μg/mL to 16 μg/mL. The final concentration of DMSO in contact with the inoculum is 1%. The same dilution and seeding protocol was followed with a stock solution of amphotericin B at 1600 μg/ml. A “placebo” (or yeast growth control) column is systematically included in the plates. The plates are incubated at 37 ° C. The reading is done at 24 and 48 h. Several trials were conducted and protocol adjustments were required. In particular, the concentration of the inoculum had to be reduced for antifungal activity to be observed.

- MIC (Isolate 1, Assay 1, 10^6 CFU/ml): 2 µg/mL (≈ 2.16 µM)
- MIC (Isolate 1, Assay 2, 10^6 CFU/ml): 4 µg/mL (≈ 4.33 µM)
- MIC (Isolate 2, Assay 1, 10^6 CFU/ml): 2 µg/mL (≈ 2.16 µM)
- MIC (Isolate 2, Assay 2, 10^6 CFU/ml): 2 µg/mL (≈ 2.16 µM)
- MIC (Isolate 3, Assay 1, 10^6 CFU/ml): 4 µg/mL (≈ 4.33 µM)
- MIC (Isolate 3, Assay 2, 10^6 CFU/ml): 8 µg/mL (≈ 8.66 µM)
- MIC (Isolate 4, Assay 1, 10^6 CFU/ml): 4 µg/mL (≈ 4.33 µM)
- MIC (Isolate 4, Assay 2, 10^6 CFU/ml): 4 µg/mL (≈ 4.33 µM)
- MIC (Isolate 5, Assay 1, 10^6 CFU/ml): 4 µg/mL (≈ 4.33 µM)
- MIC (Isolate 5, Assay 2, 10^6 CFU/ml): 4 µg/mL (≈ 4.33 µM)
- MIC (Isolate 6, Assay 1, 10^6 CFU/ml): 4 µg/mL (≈ 4.33 µM)
- MIC (Isolate 6, Assay 2, 10^6 CFU/ml): 8 µg/mL (≈ 8.66 µM)
Compound: C[C@@H]1[C@H](O)[C@@H](C)/C=C/C=C/C=C/C=C/C=C/C=C/C=C/[C@H](O[C@@H]2O[C@H](C)[C@@H](O)[C@H](N)[C@@H]2O)C[C@@H]2O[C@](O)(C[C@@H](O)C[C@@H](O)[C@H](O)CC[C@@H](O)C[C@@H](O)CC(=O)O[C@H]1C)C[C@H](O)[C@H]2C(=O)O [Amphoterine B, amphotericin B]
